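Method: 48-hour compound exposure of cells in 96-well plates, five concentrations, linear interpolation of endpoints. TGI is the concentration that stops growth completely.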
Columns and labels:
Test in all cases: NCI tumour cell line growth inhibition, 48 h
[1] = system: A549 NSCLC
[2] = system: CAKI-1 renal
[3] = system: CCRF-CEM leukemia
[4] = system: DU-145 prostate
[5] = system: HCT-116 colon
[6] = system: HL-60(TB) leukemia
[7] = system: HOP-62 NSCLC
[8] = system: IGROV1 ovarian
[9] = system: K-562 leukemia
[10] = system: MDA-MB-435
[11] = system: MOLT-4 leukemia
[12] = system: NCI-H226 lung
[13] = system: SK-MEL-2 melanoma
[14] = system: SR leukemia
[15] = system: SW-620 colon
[16] = system: UACC-257 melanoma
[17] = system: UO-31 renal

Compound	TGI [1]	TGI [2]	TGI [3]	TGI [4]	TGI [5]	TGI [6]	TGI [7]	TGI [8]	TGI [9]	TGI [10]	TGI [11]	TGI [12]	TGI [13]	TGI [14]	TGI [15]	TGI [16]	TGI [17]
OC(CC(O)(C(F)(F)F)C(F)(F)F)C(O)c1ccco1 (stereo not drawn)	> 10 µM	> 10 µM	> 10 µM	> 10 µM	> 10 µM	> 10 µM	> 10 µM	> 10 µM	> 10 µM	> 10 µM	> 10 µM	> 10 µM	> 10 µM	> 10 µM	> 10 µM	> 10 µM	> 10 µM
O=Nc1c(NO)ccc2nn(-c3ccccc3)nc12	> 100 µM	71.3 µM	> 100 µM	> 100 µM	23.1 µM	> 100 µM	> 100 µM	49.4 µM	> 100 µM	38.3 µM	74.5 µM	6.64 µM	> 100 µM	> 100 µM	> 100 µM	11.7 µM	11.8 µM
CCOC(=O)c1cc(Br)c(-c2onc(C)c2Br)n1C	64.2 µM	45.4 µM	> 100 µM	> 100 µM	41.6 µM	27.5 µM	> 100 µM	> 100 µM	> 100 µM	> 100 µM	44.3 µM	> 100 µM	> 100 µM	92.9 µM	> 100 µM	> 100 µM	> 100 µM
COc1cc2c(cc1OC)C(=O)/C(=C/c1ccc([N+](=O)[O-])cc1)CC2	> 10 µM	> 10 µM	> 10 µM	> 10 µM	> 10 µM	> 10 µM	> 10 µM	> 10 µM	> 10 µM	> 10 µM	> 10 µM	> 10 µM	> 10 µM	> 10 µM	> 10 µM	> 10 µM	–
COc1ccc(C(c2ccc3c(c2)OCO3)N2C(=O)CCC2C(=O)O)cc1 (stereo not drawn)	> 100 µM	> 100 µM	> 100 µM	> 100 µM	> 100 µM	> 100 µM	> 100 µM	> 100 µM	> 100 µM	> 100 µM	> 100 µM	> 100 µM	> 100 µM	> 100 µM	> 100 µM	> 100 µM	> 100 µM
COc1cccc(C2c3cc4c(cc3OC(N3CCCCC3)C2C)OCO4)c1OC (stereo not drawn)	22.3 µM	11 µM	15.2 µM	25.5 µM	12.1 µM	–	50.1 µM	61.7 µM	20.7 µM	33.8 µM	30.4 µM	34.8 µM	26 µM	4.02 µM	68.9 µM	36.2 µM	48.6 µM
O=C1C[C@H](CCC(=O)OCc2ccccc2)NC(=O)C[C@H](CCC(=O)OCc2ccccc2)NC(=O)C[C@H](CCC(=O)OCc2ccccc2)N1	> 100 µM	> 100 µM	> 100 µM	> 100 µM	> 100 µM	–	> 100 µM	> 100 µM	> 100 µM	> 100 µM	> 100 µM	> 100 µM	> 100 µM	> 100 µM	> 100 µM	> 100 µM	> 100 µM
CCO/C=C(\C(=O)OC)S(=O)(=O)c1ccc(C)cc1	> 100 µM	–	> 100 µM	> 100 µM	> 100 µM	> 100 µM	> 100 µM	> 100 µM	> 100 µM	> 100 µM	> 100 µM	> 100 µM	> 100 µM	> 100 µM	> 100 µM	> 100 µM	> 100 µM
O=C1COCCN1C(=O)c1ccccc1Cl	> 100 µM	> 100 µM	> 100 µM	> 100 µM	> 100 µM	> 100 µM	> 100 µM	> 100 µM	> 100 µM	> 100 µM	–	> 100 µM	–	> 100 µM	> 100 µM	> 100 µM	> 100 µM
Fc1c(F)c(C(F)(F)F)c(F)c(F)c1N/N=C/c1cn(Cc2ccccc2)c2ccccc12	72.7 µM	54.3 µM	48.4 µM	> 100 µM	89.5 µM	52.6 µM	22.4 µM	> 100 µM	87.1 µM	54.5 µM	83.3 µM	–	55.7 µM	67 µM	> 100 µM	54 µM	52.9 µM
Cc1ccc(C2SCC(=O)N2NC(=O)c2ccncc2)s1 (stereo not drawn)	> 100 µM	> 100 µM	> 100 µM	> 100 µM	> 100 µM	–	> 100 µM	> 100 µM	> 100 µM	> 100 µM	> 100 µM	> 100 µM	> 100 µM	> 100 µM	> 100 µM	> 100 µM	> 100 µM
CC[C@H]1C=CCC[C@@]2(C[C@@H]3CC[C@H]4[C@H](C(=O)OCCCCCCCCCCCCCCCC(=O)N(CCCN)C[C@@H](O)CCN)[C@]5(CCC[C@@H](C)O5)NC(=[N+]34)N2)O1	1.74 µM	1.87 µM	–	2.3 µM	1.31 µM	1.35 µM	2.69 µM	2.02 µM	1.05 µM	1.2 µM	1.29 µM	3.32 µM	2.06 µM	1.23 µM	3.51 µM	2.02 µM	1.69 µM
CN(C)c1nc(=NCc2cccnc2)ss1	> 10 µM	> 10 µM	> 10 µM	> 10 µM	–	> 10 µM	> 10 µM	> 10 µM	> 10 µM	> 10 µM	> 10 µM	–	–	> 10 µM	> 10 µM	> 10 µM	–
Fc1ccc2c3c([nH]c2c1)CCNC3	> 100 µM	–	> 100 µM	> 100 µM	> 100 µM	> 100 µM	> 100 µM	> 100 µM	> 100 µM	> 100 µM	> 100 µM	> 100 µM	–	> 100 µM	> 100 µM	> 100 µM	99.7 µM
